# Measured values published in US11332472B2, “Substituted piperidines as inhibitors of ubiquitin specific protease 7” (LES LABORATOIRES SERVIER, priority 2017, dated 2022).
# Tests used:
# [1] = test system: Z138 mantle cell lymphoma tumour cell line; assay: In vitro cytotoxicity, MTT assay, Z138 cells; format: cell-based; settings: Homo sapiens, Z-138; Z138 tumour cell line (underlined values); 96 hours exposure
# Method: (§1) The cytotoxicity studies were evaluated by MTT assay and carried out on MM 1S multiple myeloma or Z138 mantle cell lymphoma tumour cell lines. The cells are distributed onto microplates and exposed to the test compounds for 96 hours. The cell viability is then quantified by a colorimetric assay, the Microculture Tetrazolium Assay (Carmichael et. al., Cancer Res. […], 47, 936-942).
# USP7 = target: T1, USP7 (Homo sapiens, UniProt Q93009, C315A); assay: Inhibition of USP7 by Fluorescence Intensity (FLINT) readings, Ubiquitin-Rhodamine-110 substrate; format: biochemical; settings: 0.25 nM His-His-USP7 (aa208-560, [C315A]); compound 60 minutes at 30° C.; 500 nM Ubiquitin-Rhodamine substrate; 11-point curves
# T1 construct: 0.25 nM His-His-USP7 (aa208-560, [C315A]) was incubated with compound; His-His (N)
# Procedure, shortened: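 His-His-USP7 (aa208-560, C315A) at 0.25 nM was preincubated with compound for 60 min at 30 °C in 100 mM Bicine pH 8.0, 0.01% Triton X-100, 1 mM TCEP, 10% DMSO. 500 nM ubiquitin-rhodamine-110 was then added, with fluorescence (Ex 485/Em 535 nm) read every 3 min for 21 min. IC50 came from kinetic-rate inhibition, 11-point curves, 4-parameter fit.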
# [2] = test system: MM 1S multiple myeloma tumour cell line; assay: In vitro cytotoxicity, MTT assay, MM1S cells; format: cell-based; settings: Homo sapiens, MM1.S, 96 hours exposure
# Method: as §1
# T1 sequence (Q93009 208-560 C315A): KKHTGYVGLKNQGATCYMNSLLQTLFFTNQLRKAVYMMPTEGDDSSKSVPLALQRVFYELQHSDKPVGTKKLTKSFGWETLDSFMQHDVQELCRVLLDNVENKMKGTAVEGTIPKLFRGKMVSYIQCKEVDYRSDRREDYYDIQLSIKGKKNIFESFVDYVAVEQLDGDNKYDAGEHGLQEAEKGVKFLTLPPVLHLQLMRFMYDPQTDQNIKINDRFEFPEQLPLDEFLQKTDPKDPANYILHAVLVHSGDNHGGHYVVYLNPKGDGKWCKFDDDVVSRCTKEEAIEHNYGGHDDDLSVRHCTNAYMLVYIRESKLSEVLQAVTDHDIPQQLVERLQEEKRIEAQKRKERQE
IC50 (USP7) [nM],Compound,IC50 [1] [nM],IC50 [2] [nM]
27.1,"O=C([C@@H]1CCCC[C@H]1n1cccc1)N1CCC(O)(Cn2cnc3c(ccn3-c3ccccc3)c2=O)CC1 (single isomer, unassigned) [Example 14, 3-[[4-hydroxy-1-[trans-2-pyrrol-1-ylcyclohexanecarbonyl]-4-piperidyl]methyl]-7-phenyl-pyrrolo[2,3-d]pyrimidin-4-one]",14.7,6.42
23.1,"COc1ccc(-n2ccc3c(=O)n(CC4(O)CCN(C(=O)[C@@H]5CCC(F)(F)C[C@H]5c5ccccc5)CC4)cnc32)cc1 (single isomer, unassigned) [Example 34, 3-[[1-[trans-4,4-difluoro-2-phenyl-cyclohexanecarbonyl]-4-hydroxy-4-piperidyl]methyl]-7-(4-methoxyphenyl)pyrrolo[2,3-d]pyrimidin-4-one]",5.66,24.5
15.9,"COc1ccc(-n2ccc3c(=O)n(CC4(O)CCN(C(=O)[C@@H]5CC(F)(F)CC[C@H]5c5ccccc5)CC4)cnc32)cc1 (single isomer, unassigned) [Example 30, 3-[[1-[trans-5,5-difluoro-2-phenyl-cyclohexanecarbonyl]-4-hydroxy-4-piperidyl]methyl]-7-(4-methoxyphenyl)pyrrolo[2,3-d]pyrimidin-4-one]",,10.8
26.9,"COc1ccc(-n2ccc3c(=O)n(CC4(O)CCN(C(=O)[C@@H]5CCCC[C@H]5c5ccccc5)CC4)cnc32)cc1 (relative stereo) [Example 21, 3-[[4-hydroxy-1-(trans-2-phenylcyclohexanecarbonyl) 4-piperidyl]methyl]-7-(4-methoxyphenyl)pyrrolo[2,3-d]pyrimidin-4-one]",,3.4
50.6,"O=C([C@@H]1CCCC[C@H]1c1ccccc1)N1CCC(O)(Cn2cnc3c(nnn3-c3ccccc3)c2=O)CC1 (relative stereo) [Example 18, 6-[[4-hydroxy-1-(trans-2-phenylcyclohexanecarbonyl)-4-piperidyl]methyl]-3-phenyl-triazolo[4,5-d]pyrimidin-7-one]",,636
124,"O=C([C@@H]1CCCC[C@H]1c1ccccc1)N1CCC(O)(Cn2cnc3[nH]ccc3c2=O)CC1 (relative stereo) [Example 92, 3-[[4-hydroxy-1-(trans-2-phenylcyclohexanecarbonyl)-4-piperidyl]methyl]-7H-pyrrolo[2,3-d]pyrimidin-4-one]",,523
29.3,"O=C([C@@H]1CCCC[C@H]1c1ccccc1)N1CCC(O)(Cn2cnc3c(ncn3-c3ccccc3)c2=O)CC1 (relative stereo) [Example 20, 1-[[4-hydroxy-1-(trans-2-phenylcyclohexanecarbonyl)-4-piperidyl]methyl]-9-phenyl-purin-6-one]",,210
17.2,"O=C([C@@H]1CCCC[C@H]1c1ccccc1)N1CCC(O)(Cn2cnc3c(ccn3-c3ccsc3)c2=O)CC1 (relative stereo) [Example 23, 3-[[4-hydroxy-1-(trans-2-phenylcyclohexanecarbonyl)-4-piperidyl]methyl]-7-(3-thienyl)pyrrolo[2,3-d]pyrimidin-4-one]",,70.1
